Assay results taken from article PMC12089509, “NorA Efflux Pump Inhibitors: Expanding SAR Knowledge of Pyrazolo[4,3‐c][1,2]benzothiazine 5,5‐Dioxide Derivatives” (Archiv Der Pharmazie, 2025).
Read-outs that look alike come from different tables or passages of the source.

Columns and labels:
[1] = target: T1, S. aureus NorA efflux pump (SA-1199B strain, overexpresses the norA gene) (Staphylococcus aureus, UniProt P0A0J7); test: EtBr efflux inhibition assay; format: cell-based; conditions: for inhibition at 50 µM: read-out: EtBr efflux inhibition (%), compound at 50 µM, SA-1199B; for inhibition at 10 µM: read-out: EtBr efflux inhibition (%), compound at 10 µM, SA-1199B
T1 construct: endogenous in cells; host or cells: S. aureus SA-1199B (overexpresses norA; isogenic parent SA-1199)
Description: EtBr efflux inhibition assays were conducted using the S. aureus SA‐1199B strain, which overexpresses the norA gene and has an A116E GrlA substitution. Each compound was tested at 50 µM (see Figure 2). The starting hit compound 1 was used as the internal standard for comparison with the previously reported data.
The cells were grown overnight in cation‐supplemented Mueller–Hinton broth (CAMHB) without any additives at 35°C. The organisms were subsequently diluted into CAMHB to obtain an optical density at 600 nm (OD600) of 0.7–0.8. Subsequently, the cells were pelleted and resuspended at an OD600 of 0.8 in 0.5 mL aliquots of CAMHB containing EtBr and carbonyl cyanide m‐chlorophenylhydrazone (CCCP) to “load” the cells with EtBr (final concentrations of 25 μM for EtBr and 100 μM for CCCP). Following 20 min of incubation at room temperature, the cells were pelleted and resuspended in 1 mL of fresh CAMHB. Immediately thereafter, 200 μL aliquots were transferred into the wells of white 96‐well plates, which either lacked or contained 50 or 10 μM of each test compound. Fluorescence was monitored continuously using a microplate reader (Infinite M200 Pro, TECAN) at excitation and emission wavelengths of 485 and 645 nm, respectively, for a period of 5 min. The experiments were conducted in triplicate, with two technical replicates per biological replicate. The efflux activity of the SA‐1199B strain was expressed as a percentage of fluorescence decrease over a 5‐min time course. The inhibition of this efflux by the test compounds was determined using the following equation: ([efflux in the absence] ‐ [efflux in the presence of test [compound])/[efflux in the absence of test compound] × 100, which yielded the percent efflux inhibition observed.
^a Experiments were performed in triplicate with two technical replicates per biological replicate. Efflux activity of SA-1199B was expressed as percent fluorescence decrease over a 5 min time course. Inhibition of this efflux by test compounds was determined using the equation [efflux in the absence] − [efflux in the presence of test [compound]/[efflux in the absence of test compound] × 100, giving the percent efflux inhibition observed.

[2] = tested on: Staphylococcus aureus SA-1199B; test: MIC determination (broth microdilution) against SA-1199B; format: cell-based; conditions: SA1199B
From the text: In this study, the S. aureus strains SA‐1199B (overexpressing norA) and its isogenic parent SA‐1199 (wild type), the pair SA‐K1902 (norA‐depleted) and SA‐K2378 (complemented with a pCU1 plasmid harboring the norA promoting and coding region from SA‐1199B), were used to test EPI activity as described in a previous study. Furthermore, the S. aureus ATCC 29213 was used as the reference strain in MIC determination experiments.

[3] = tested on: Staphylococcus aureus SA-1199B; format: cell-based
From the text: For purposes of comparison, compound 1 was included as a reference.

[4] = tested on: S. aureus SA-1199 (wild type); test: MIC determination against wild-type SA-1199; format: cell-based; conditions: Staphylococcus aureus, compound alone
From the text: (§1) This finding aligns with their mechanism of action, which involves the inhibition of NorA, which is only basally expressed in the wild‐type SA‐1199 strain.

[5] = tested on: S. aureus SA-1199 (wild type); test: Synergistic assay with CPX against wild-type SA-1199; format: cell-based, Staphylococcus aureus; conditions: EPI at 3.13 µg/mL with CPX
From the text: as §1

T1 sequence (P0A0J7 whole entry): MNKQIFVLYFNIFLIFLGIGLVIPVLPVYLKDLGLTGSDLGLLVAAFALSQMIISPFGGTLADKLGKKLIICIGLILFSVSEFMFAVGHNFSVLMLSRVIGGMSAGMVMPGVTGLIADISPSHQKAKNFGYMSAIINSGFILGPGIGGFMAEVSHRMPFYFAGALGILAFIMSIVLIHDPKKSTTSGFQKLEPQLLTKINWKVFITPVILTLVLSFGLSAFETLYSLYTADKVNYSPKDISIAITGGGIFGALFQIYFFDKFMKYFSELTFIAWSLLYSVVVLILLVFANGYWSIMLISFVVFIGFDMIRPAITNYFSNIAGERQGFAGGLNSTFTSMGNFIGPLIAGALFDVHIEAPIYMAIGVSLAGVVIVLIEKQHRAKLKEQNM

SMILES | inhibition at 50 µM [1] [%] | MIC [2] [µg/mL] | inhibition at 10 µM [1] [%] | N° fold CPX MIC reduction ([3]; EPI at 6.25 µg/mL) [fold] | N° fold CPX MIC reduction ([3]; EPI at 12.5 µg/mL) [fold] | MIC [4] [µg/mL] | synergistic effect with CPX [5] | N° fold CPX MIC reduction ([3]; EPI at 3.12 µg/mL) [fold]
Cc1nn(-c2ccc([N+](=O)[O-])cc2)c2c1S(=O)(=O)Nc1ccccc1-2 [Compound 5, 3‐Methyl‐1‐(4‐nitrophenyl)‐1,5‐dihydropyrazolo[4,3‐c][2,1]benzothiazine 4,4‐dioxide] | 0 | > 50 | – | – | – | – | – | –
CN1c2c(-c3ccc(Cl)cc3)nn(CCN3CCCCC3)c2-c2ccccc2S1(=O)=O [Compound 18, 3‐(4‐Chlorophenyl)‐4‐methyl‐1‐(2‐piperidin‐1‐ylethyl)‐1,4‐dihydropyrazolo[4,3‐c][1,2]benzothiazine 5,5‐dioxide] | > 70 | > 50 | 37 | 2 | 4 | > 50 | did not show any synergistic effect | –
CNC(=O)CN1c2c(-c3ccc(F)cc3)n[nH]c2-c2ccccc2S1(=O)=O [Compound 16, 2‐[3‐(4‐Fluorophenyl)‐5,5‐dioxidopyrazolo[4,3‐c][1,2]benzothiazin‐4(1H)‐yl]‐N‐methylacetamide] | 22 | > 50 | – | – | 2 | – | – | –
CN1c2c(-c3ccc(F)cc3)n[nH]c2-c2ccccc2S1(=O)=O [Compound 12, 3‐(4‐Fluorophenyl)‐4‐methyl‐1,4‐dihydropyrazolo[4,3‐c][1,2]benzothiazine 5,5‐dioxide] | 87 | > 50 | 22 | – | – | > 50 | did not show any synergistic effect | –
COc1ccc2c(c1)S(=O)(=O)N(C)c1c(-c3ccc(F)cc3)nn(C)c1-2 [Compound 22, 3‐(4‐Fluorophenyl)‐7‐methoxy‐1,4‐dimethyl‐1,4‐dihydropyrazolo[4,3‐c][1,2]benzothiazine 5,5‐dioxide] | 22 | > 50 | – | – | 2 | – | – | –
CN1c2c(-c3ccc(Cl)cc3)nn(-c3ccc([N+](=O)[O-])cc3)c2-c2ccccc2S1(=O)=O [Compound 2] | 0 | > 50 | – | – | – | – | – | –
CN1c2c(-c3ccc(F)c(Cl)c3)n[nH]c2-c2ccccc2S1(=O)=O [Compound 13, 3‐(3‐Chloro‐4‐fluorophenyl)‐4‐methyl‐1,4‐dihydropyrazolo[4,3‐c][1,2]benzothiazine 5,5‐dioxide] | 100 | > 50 | 0 | – | 4 | > 50 | did not show any synergistic effect | 2
CCN1c2c(-c3ccc(F)cc3)n[nH]c2-c2ccccc2S1(=O)=O [Compound 14, 4‐Ethyl‐3‐(4‐fluorophenyl)‐1,4‐dihydropyrazolo[4,3‐c][1,2]benzothiazine 5,5‐dioxide] | 57 | > 50 | – | – | 2 | – | – | –
CN1c2c(-c3ccc(F)cc3)nn(C)c2-c2ccc(OCCN3CCCCC3)cc2S1(=O)=O [Compound 20, 3‐(4‐Fluorophenyl)‐1,4‐dimethyl‐7‐(2‐piperidin‐1‐ylethoxy)‐1,4‐dihydropyrazolo[4,3‐c][1,2]benzothiazine 5,5‐dioxide] | > 70 | > 50 | 33 | 2 | 8 | > 50 | did not show any synergistic effect | –
Cc1nn(-c2ccc([N+](=O)[O-])cc2)c2c1S(=O)(=O)N(C)c1ccccc1-2 [Compound 7, 3,5‐Dimethyl‐1‐(4‐nitrophenyl)‐1,5‐dihydropyrazolo[4,3‐c][2,1]benzothiazine 4,4‐dioxide] | 3 | > 50 | – | – | – | – | – | –
CNCCN1c2c(-c3ccc(F)cc3)n[nH]c2-c2ccccc2S1(=O)=O [Compound 17, 2‐[3‐(4‐Fluorophenyl)‐5,5‐dioxidopyrazolo[4,3‐c][1,2]benzothiazin‐4(1H)‐yl]‐N‐methylethanamine] | 57 | > 50 | – | – | – | – | – | –
CN1c2c(-c3ccc(F)cc3)nn(C)c2-c2ccc(OCC(O)CO)cc2S1(=O)=O (stereo not drawn) [Compound 21, 3‐{[3‐(4‐Fluorophenyl)‐1,4‐dimethyl‐5,5‐dioxido‐1,4‐dihydropyrazolo[4,3‐c][1,2]benzothiazin‐7‐yl]oxy}propane‐1,2‐diol] | 0 | > 50 | – | – | – | – | – | –
CN1C(C(=O)c2ccc(F)cc2)=C(OCCN2CCCCC2)c2ccccc2S1(=O)=O [Compound 24, (4‐Fluorophenyl)[2‐methyl‐1,1‐dioxido‐4‐(2‐piperidin‐1‐ylethoxy)‐2H‐1,2‐benzothiazin‐3‐yl]methanone] | 38 | > 50 | – | – | 2 | – | – | –
CCN(CC)CCOC1=C(C(=O)c2ccc(F)cc2)N(C)S(=O)(=O)c2ccccc21 [Compound 23, {4‐[2‐(Diethylamino)ethoxy]‐2‐methyl‐1,1‐dioxido‐2H‐1,2‐benzothiazin‐3‐yl}(4‐fluorophenyl)methanone] | 36 | > 50 | – | – | 2 | – | – | –
O=S1(=O)c2ccccc2-c2[nH]nc(-c3ccc(F)cc3)c2N1CCCO [Compound 15, 3‐[3‐(4‐Fluorophenyl)‐5,5‐dioxidopyrazolo[4,3‐c][1,2]benzothiazin‐4(1H)‐yl]propan‐1‐ol] | 17 | > 50 | – | – | 2 | – | – | –
Cc1nn(-c2ccc([N+](=O)[O-])cc2)c2c1N(C)S(=O)(=O)c1ccccc1-2 [Compound 6] | 22 | > 50 | – | – | – | – | – | –
O=S1(=O)Nc2c(-c3ccc(Cl)cc3)n[nH]c2-c2ccccc21 [Compound 9, 3‐(4‐Chlorophenyl)‐1,4‐dihydropyrazolo[4,3‐c][1,2]benzothiazine 5,5‐dioxide] | 12 | > 50 | – | – | 2 | – | – | –
CN1c2c(-c3ccccc3)n[nH]c2-c2ccccc2S1(=O)=O [Compound 11, 4‐Methyl‐3‐phenyl‐1,4‐dihydropyrazolo[4,3‐c][1,2]benzothiazine 5,5‐dioxide] | < 70 | > 50 | – | – | – | – | – | –
Cc1nn(-c2ccc([N+](=O)[O-])cc2)c2c1NS(=O)(=O)c1ccccc1-2 [Compound 4] | 0 | > 50 | – | – | – | – | – | –
Cc1cc(-c2ccccc2NS(C)(=O)=O)n(-c2ccccc2)n1 [Compound 8, N‐[2‐(3‐Methyl‐1‐phenyl‐1H‐pyrazol‐5‐yl)phenyl]methanesulfonamide] | 0 | > 50 | – | – | 2 | – | – | –
